pIC50: −log10 of the molar value.
Legend:
Type in all cases: functional, cell-based
U-937 = experiment: Cytotoxicity against human U937 cells after 48 hrs by MTT assay; conditions: U-937, 48 h
COLO 205 = experiment: Cytotoxicity against human COLO205 cells after 48 hrs by MTT assay; conditions: COLO 205, 48 h
HL-60 = experiment: Cytotoxicity against human HL60 cells after 48 hrs by MTT assay; conditions: HL-60, 48 h
MCF7 = experiment: Cytotoxicity against human MCF7 cells after 48 hrs by MTT assay; conditions: MCF7, 48 h
U2OS = experiment: Cytotoxicity against human U2OS cells after 48 hrs by MTT assay
MDA-MB-231 = experiment: Cytotoxicity against human MDA-MB-231 cells after 48 hrs by MTT assay; conditions: MDA-MB-231, 48 h
[1] = Cytotoxicity against human HT29-AK cells after 48 hrs by MTT assay

Structure (SMILES) | pIC50 (U-937) | pIC50 (COLO 205) | pIC50 (HL-60) | pIC50 (MCF7) | pIC50 (U2OS) | pIC50 (MDA-MB-231) | pIC50 [1]
Oc1ccc(Nc2nc(-c3cccc(F)c3)nc3ccc(F)cc23)cc1 | < 4.30 | < 4.30 | < 4.30 | < 4.30 | < 4.30 | < 4.30 | < 4.30
COc1ccccc1Nc1nc(-c2cccc(F)c2)nc2ccc(F)cc12 | < 4.30 | < 4.30 | < 4.30 | < 4.30 | < 4.30 | < 4.30 | < 4.30
Cc1ccc(Nc2nc(-c3cccc(F)c3)nc3ccc(F)cc23)cc1 | < 4.30 | < 4.30 | < 4.30 | < 4.30 | < 4.30 | < 4.30 | < 4.30
Cc1ccccc1Nc1nc(-c2cccc(F)c2)nc2ccc(F)cc12 | < 4.30 | < 4.30 | < 4.30 | < 4.30 | < 4.30 | < 4.30 | < 4.30
Nc1ccc(Nc2nc(-c3cccc(F)c3)nc3ccc(F)cc23)cc1 | < 4.30 | < 4.30 | < 4.30 | < 4.30 | 4.36 | < 4.30 | < 4.30
Nc1ccccc1Nc1nc(-c2cccc(F)c2)nc2ccc(F)cc12 | 4.33 | < 4.30 | 4.38 | < 4.30 | 4.42 | < 4.30 | < 4.30
Oc1cccc(Nc2nc(-c3cccc(F)c3)nc3ccc(F)cc23)c1 | < 4.30 | < 4.30 | < 4.30 | < 4.30 | 4.48 | < 4.30 | < 4.30
Fc1cccc(-c2nc(Nc3ccc(Cl)cc3)c3cc(F)ccc3n2)c1 | 4.49 | 4.49 | 4.34 | < 4.30 | 4.42 | < 4.30 | 4.39
Fc1cccc(Nc2nc(-c3cccc(F)c3)nc3ccc(F)cc23)c1 | 4.37 | < 4.30 | 4.37 | 4.31 | 4.30 | 4.32 | < 4.30
Fc1ccc2nc(-c3ccccc3)nc(Nc3ccccc3)c2c1 | < 4.30 | < 4.30 | < 4.30 | < 4.30 | < 4.30 | < 4.30 | < 4.30
Oc1ccccc1Nc1nc(-c2cccc(F)c2)nc2ccc(F)cc12 | 4.33 | < 4.30 | 4.35 | < 4.30 | 4.38 | < 4.30 | < 4.30
Fc1cccc(-c2nc(Nc3ccccc3)c3ccccc3n2)c1 | < 4.30 | < 4.30 | < 4.30 | < 4.30 | < 4.30 | < 4.30 | < 4.30
Fc1ccc(Nc2nc(-c3cccc(F)c3)nc3ccc(F)cc23)cc1 | < 4.30 | < 4.30 | < 4.30 | < 4.30 | < 4.30 | < 4.30 | < 4.30
Fc1cccc(-c2nc(Nc3ccccc3Br)c3cc(F)ccc3n2)c1 | < 4.30 | < 4.30 | < 4.30 | < 4.30 | < 4.30 | < 4.30 | < 4.30
Fc1cccc(-c2nc(Nc3ccccc3)c3cc(F)ccc3n2)c1 | 4.34 | 4.30 | 4.32 | 4.30 | 4.32 | 4.32 | 4.32
c1ccc(Nc2nc(-c3ccccc3)nc3ccccc23)cc1 | < 4.30 | < 4.30 | < 4.30 | < 4.30 | < 4.30 | < 4.30 | < 4.30
Fc1cccc(-c2nc(Nc3cccc(Cl)c3)c3cc(F)ccc3n2)c1 | < 4.30 | < 4.30 | < 4.30 | < 4.30 | < 4.30 | < 4.30 | < 4.30
Cc1cccc(Nc2nc(-c3cccc(F)c3)nc3ccc(F)cc23)c1 | < 4.30 | < 4.30 | < 4.30 | < 4.30 | < 4.30 | < 4.30 | < 4.30
Fc1cccc(-c2nc(Nc3cccc(Br)c3)c3cc(F)ccc3n2)c1 | < 4.30 | < 4.30 | < 4.30 | < 4.30 | < 4.30 | < 4.30 | < 4.30
Fc1cccc(-c2nc(Nc3ccccc3F)c3cc(F)ccc3n2)c1 | < 4.30 | < 4.30 | < 4.30 | < 4.30 | < 4.30 | < 4.30 | < 4.30
Fc1cccc(-c2nc(Nc3ccccc3Cl)c3cc(F)ccc3n2)c1 | < 4.30 | < 4.30 | < 4.30 | < 4.30 | < 4.30 | < 4.30 | < 4.30
Fc1cccc(-c2nc(Nc3ccc(Br)cc3)c3cc(F)ccc3n2)c1 | < 4.30 | < 4.30 | < 4.30 | < 4.30 | < 4.30 | < 4.30 | < 4.30
COc1ccc(Nc2nc(-c3cccc(F)c3)nc3ccc(F)cc23)cc1 | 4.39 | 4.33 | 4.41 | 4.32 | 4.49 | 4.33 | 4.37
Nc1cccc(Nc2nc(-c3cccc(F)c3)nc3ccc(F)cc23)c1 | < 4.30 | < 4.30 | < 4.30 | < 4.30 | 4.30 | < 4.30 | < 4.30
